# Test system: peripheral blood mononuclear cells (PBMC) stimulated with allogeneic PBMC or EBV-transformed human B cells (RPMI1788)
# Test: Mixed lymphocyte reaction (MLR) assay
# Type: cell-based
# Conditions: Homo sapiens, RPMI-1788; MLR assay of example 319; read-out: MLR IC50
# How it was run: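 Responder PBMC co-cultured in triplicate with 30 Gy-irradiated allogeneic PBMC or RPMI1788 B cells plus compound (DMSO stock 10 mM, diluted in medium). After 5 days at 37° C, 1 μCi [3H]-thymidine added for 16 h more; incorporated cpm counted and proliferation inhibition calculated.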
row,SMILES,IC50 [nM]
1,"Nc1nc(N2CCN(C(=O)CNC(=O)c3ccc(Cl)cc3)CC2)c2nc(-c3ccc(F)cc3)ccc2n1 [Example 476, N-(2-{4-[2-amino-6-(4-fluorophenyl)-pyrido[3,2-d]pyrimidin-4-yl]-piperazin-1-yl}-2-oxoethyl)-4-chlorobenzamide]",60
2,"Nc1nc(N2CCN(C(=O)CNC(=O)c3ccccc3)CC2)c2nc(-c3ccc(F)cc3)ccc2n1 [Example 478, N-(2-{4-[2-amino-6-(4-fluorophenyl)-pyrido[3,2-d]pyrimidin-4-yl]-piperazin-1-yl}-2-oxoethyl)benzamide]",5
3,"Nc1nc(NC2CCN(C(=O)COc3ccc(Cl)cc3)CC2)c2nc(-c3ccc(F)cc3)ccc2n1 [Example 480, 2-amino-4-[1-(4-chlorophenoxyacetyl)piperid-4-ylamino]-6-(4-fluorophenyl)-pyrido[3,2-d]pyrimidine]",2200
4,"C[C@@H]1CN(C(=O)OC(C)(C)C)CCN1c1nc(N)nc2ccc(-c3ccc(F)cc3)nc12 [Example 481, (R)-4-[2-amino-6-(4-fluorophenyl)-pyrido[3,2-d]pyrimidin-4-yl]-3-methylpiperazine-1-carboxylic acid tert-butyl ester]",> 10000
5,"C[C@@H]1CN(C(=O)COc2ccc(Cl)cc2)CCN1c1nc(N)nc2ccc(-c3ccc(F)cc3)nc12 [Example 482, (R)-2-amino-4-[4-(4-chlorophenoxyacetyl)-2-methylpiperazin-1-yl]-6-(4-fluorophenyl)-pyrido[3,2-d]pyrimidine]",500
6,"CC(C)(C)OC(=O)N1C[C@@H]2C[C@H]1CN2c1nc(N)nc2ccc(-c3ccc(F)cc3)nc12 [Example 483, (S,S)-5-[2-amino-6-(4-fluorophenyl)-pyrido[3,2-d]pyrimidin-4-yl]-2,5-diaza-bicyclo[2.2.1]heptane-2-carboxylic acid tert-butyl ester]",6100
7,"Nc1nc(N2C[C@@H]3C[C@H]2CN3C(=O)COc2ccc(Cl)cc2)c2nc(-c3ccc(F)cc3)ccc2n1 [Example 484, (S,S)-1-{5-[2-amino-6-(4-fluorophenyl)-pyrido[3,2-d]pyrimidin-4-yl]-2,5-diaza-bicyclo[2.2.1]hept-2-yl}-2-(4-chlorophenoxy)-ethanone]",2600
8,"Nc1nc(NC2CCN(C(=O)COc3ccccc3)CC2)c2nc(-c3ccc(F)cc3)ccc2n1 [Example 485, 2-amino-4-[1-(phenoxyacetyl)piperid-4-ylamino]-6-(4-fluorophenyl)-pyrido[3,2-d]pyrimidine]",300
9,"C[C@H]1CN(C(=O)OCc2ccccc2)CCN1c1nc(N)nc2ccc(-c3ccc(F)cc3)nc12 [Example 486, (S)-4-[2-amino-6-(4-fluorophenyl)-pyrido[3,2-d]pyrimidin-4-yl]-3-methylpiperazine-1-carboxylic acid benzyl ester]",800
10,"C[C@@H]1CN(C(=O)c2ccccc2)CCN1c1nc(N)nc2ccc(-c3ccc(F)cc3)nc12 [Example 487, (R)-2-amino-4-(4-benzoyl-2-methylpiperazin-1-yl)-6-(4-fluorophenyl)-pyrido[3,2-d]pyrimidine]",7500
11,"C[C@H]1CN(C(=O)COc2ccc(Cl)cc2)CCN1c1nc(N)nc2ccc(-c3ccc(F)cc3)nc12 [Example 489, (S)-2-amino-4-[4-(4-chlorophenoxyacetyl)-2-methylpiperazin-1-yl]-6-(4-fluorophenyl)-pyrido[3,2-d]pyrimidine]",5
12,"Nc1nc(N2CCN(C(=O)CC(=O)Nc3ccc(Cl)cc3)CC2)c2nc(-c3ccc(F)cc3)ccc2n1 [Example 490, 2-amino-4-[4-(4-chlorophenylcarbamoyl-acetyl)piperazin-1-yl]-6-(4-fluorophenyl)-pyrido[3,2-d]pyrimidine]",340
13,"Nc1nc(N2CCN(C(=O)COc3ccc(Cl)cc3)CC2)c2nc(Cl)ccc2n1 [Example 492, 2-amino-4-(N-(4-chlorophenoxyacetyl)-piperazin-1-yl)-6-chloro-pyrido[3,2-d]pyrimidine]",80
14,"CCOc1ccc(-c2ccc3nc(N)nc(N4CCN(C(=O)COc5ccc(Cl)cc5)CC4)c3n2)cc1Cl [Example 493, 2-amino-4-[N-(4-chlorophenoxyacetyl)-piperazin-1-yl]-6-(3-chloro-4-ethoxyphenyl)-pyrido(3,2-d)pyrimidine]",57
15,"CCOc1ccc(-c2ccc3nc(N)nc(N4CCN(C(=O)COc5ccc(Cl)cc5)CC4)c3n2)cc1 [Example 494, 2-amino-4-[N-(4-chlorophenoxyacetyl)-piperazin-1-yl]-6-(4-ethoxyphenyl)-pyrido(3,2-d)pyrimidine]",33
16,"CSc1ccc(-c2ccc3nc(N)nc(N4CCN(C(=O)COc5ccc(Cl)cc5)CC4)c3n2)cc1 [Example 495, 2-amino-4-[N-(4-chlorophenoxyacetyl)-piperazin-1-yl]-6-(4-methylthiophenyl)-pyrido(3,2-d)pyrimidine]",22
17,"COc1cc(-c2ccc3nc(N)nc(N4CCN(C(=O)COc5ccc(Cl)cc5)CC4)c3n2)ccc1O [Example 496, 2-amino-4-[N-(4-chlorophenoxyacetyl)-piperazin-1-yl]-6-(3-methoxy-4-hydroxyphenyl)-pyrido(3,2-d)pyrimidine]",71
18,"Nc1nc(N2CCN(C(=O)COc3ccc(Cl)cc3)CC2)c2nc(-c3ccc4c(c3)CCO4)ccc2n1 [Example 497, 2-amino-4-[N-(4-chlorophenoxyacetyl)-piperazin-1-yl]-6-(2,3-dihydro-1-benzofuran-5-yl)-pyrido(3,2-d)pyrimidine]",210
19,"Cc1cccc(-c2ccc3nc(N)nc(N4CCN(C(=O)COc5ccc(Cl)cc5)CC4)c3n2)c1 [Example 498, 2-amino-4-[N-(4-chlorophenoxyacetyl)-piperazin-1-yl]-6-(3-methyl-phenyl)-pyrido(3,2-d)pyrimidine]",8
20,"N#CCc1ccc(-c2ccc3nc(N)nc(N4CCN(C(=O)COc5ccc(Cl)cc5)CC4)c3n2)cc1 [Example 499, 2-amino-4-[N-(4-chlorophenoxyacetyl)-piperazin-1-yl]-6-(4-cyanomethyl-phenyl)-pyrido(3,2-d)pyrimidine]",11
21,"COCc1cccc(-c2ccc3nc(N)nc(N4CCN(C(=O)COc5ccc(Cl)cc5)CC4)c3n2)c1 [Example 500, 2-amino-4-[N-(4-chlorophenoxyacetyl)-piperazin-1-yl]-6-(3-methoxy-methylphenyl)-pyrido(3,2-d)pyrimidine]",31
22,"COc1cc(-c2ccc3nc(N)nc(N4CCN(C(=O)COc5ccc(Cl)cc5)CC4)c3n2)ccc1OCc1ccccc1 [Example 501, 2-amino-4-[N-(4-chlorophenoxyacetyl)-piperazin-1-yl]-6-(3-methoxy-4-benzyloxyphenyl)-pyrido(3,2-d)pyrimidine]",> 10000
23,"COc1c(C)cc(-c2ccc3nc(N)nc(N4CCN(C(=O)COc5ccc(Cl)cc5)CC4)c3n2)cc1C [Example 502, 2-amino-4-[N-(4-chlorophenoxyacetyl)-piperazin-1-yl]-6-(3,5-dimethyl-4-methoxyphenyl)-pyrido(3,2-d)pyrimidine]",78
24,"N#CCOc1ccc(-c2ccc3nc(N)nc(N4CCN(C(=O)COc5ccc(Cl)cc5)CC4)c3n2)cc1 [Example 503, 2-amino-4-[N-(4-chlorophenoxyacetyl)-piperazin-1-yl]-6-(4-cyano-methoxyphenyl)-pyrido(3,2-d)pyrimidine]",20

# Source: patent publication US20090264415A2 (priority 2004, published 2009)
